The results in this text go back to US9328118B2, “Nitrogen-containing bicyclic aromatic heterocyclic compound” (ASTELLAS PHARMA INC., priority 2012, dated 2016).

Structures can show the parent of a compound that is named as a salt.

Sequence of human cathepsin S (P25774 115-331): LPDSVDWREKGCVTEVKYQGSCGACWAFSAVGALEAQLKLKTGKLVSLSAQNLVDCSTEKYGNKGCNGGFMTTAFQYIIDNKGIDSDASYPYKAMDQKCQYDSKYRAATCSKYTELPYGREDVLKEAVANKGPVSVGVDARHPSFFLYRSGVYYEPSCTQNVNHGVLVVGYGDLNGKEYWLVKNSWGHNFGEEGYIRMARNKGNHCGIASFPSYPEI

The first assay deals with human cathepsin S (Homo sapiens (Human), UniProt P25774). Briefly: In vitro human cathepsin S inhibitory activity (VVR-AMC fluorescence). Conditions: human cathepsin S enzyme, substrate VVR-AMC 40 μM, pH 4.5, 37° C.; read-out: IC50 value of the human cathepsin S inhibitory activity (Data 1). Type of assay: biochemical. As to the method:
Test Example 1 Measurement of a In Vitro Human Cathepsin S Inhibitory Activity
5 μL of a human cathepsin S enzyme (R&D1183-CY-010) was added to a 96-well plate so as to be 20 ng/well. […] A reaction rate at the time of not adding an enzyme in which the test compound was not added and a reaction rate at the time of adding an enzyme in which the test compound was not added were set to 100% inhibition and 0% inhibition, respectively, then, an inhibition rate at each concentration was determined, and IC50 values were calculated by a linear regression method. In the Table, Ex represents Example compound No., and Data 1 represents an IC50 value (nM) of the human cathepsin S inhibitory activity.
The IC50 is the concentration that inhibits the measured activity by half. For `CN(C)C(=O)N1CCC(CCOc2ccc(-c3nc(C#N)nc4c3ncn4C)cc2C(F)(F)F)CC1` [Example 7, 4-{2-[4-(2-cyano-9-methyl-9H-purin-6-yl)-2-(trifluoromethyl)phenoxy]ethyl}-N,N-dimethylpiperidine-1-carboxamide], the IC50 turned out to be 6.2 nM.

As for `Cn1ccc2c(-c3cnc(OCC4CCNCC4)c(C(F)(F)F)c3)nc(C#N)nc21` [Example 153], the 50% inhibitory concentration (IC50) worked out at 1.6 nM.

Regarding `CN1CCC[C@H]1C(=O)N1CC[C@H](OCCOc2ncc(-c3nc(C#N)nc4c3ccn4C)cc2C(F)(F)F)C1` [Example 150], the IC50 was determined as 1.7 nM.

With `CC(C)N1CCC(CCOc2ncc(-c3nc(C#N)nc4c3ncn4C)cc2C(F)(F)F)CC1` [Example 139], the IC50 was determined as 2.1 nM.

For the compound `CCN1CCC(CCOc2ccc(-c3nc(C#N)nc4c3ccn4CCOC)cc2C(F)(F)F)CC1` [Example 13, 4-{4-[2-(1-ethylpiperidin-4-yl)ethoxy]-3-(trifluoromethyl)phenyl}-7-(2-methoxyethyl)-7H-pyrrolo[2,3-d]pyrimidine-2-carbonitrile monohydrochloride], the IC50 worked out at 2.7 nM.

Consider `CC(C)N1CCC[C@H]1C(=O)N1CCC(COc2ncc(-c3nc(C#N)nc4c3ccn4C)cc2C(F)(F)F)CC1` [Example 156], for which the IC50 was 2.4 nM.

As to `Cn1cnc2c(-c3cnc(OCCC4CCN(C(=O)[C@@H]5CCCN5)CC4)c(C(F)(F)F)c3)nc(C#N)nc21` [Example 138], the IC50 was 2.7 nM.

Turning to `Cn1ccc2c(-c3cnc(OCC4CCN(CC(C)(C)O)CC4)c(C(F)(F)F)c3)nc(C#N)nc21` [Example 155], the IC50 is 1.5 nM.

As for `CCOc1ccc(-c2nc(C#N)nc3c2ccn3CC(=O)N2CCN(C)CC2)cc1C(F)(F)F` [Example 5, 4-[4-ethoxy-3-(trifluoromethyl)phenyl]-7-[2-(4-methylpiperazin-1-yl)-2-oxoethyl]-7H-pyrrolo[2,3-d]pyrimidine-2-carbonitrile], the IC50 stood at 4.2 nM.

On to `CCN1CCCC(CCOc2ncc(-c3nc(C#N)nc4c3ccn4C)cc2C(F)(F)F)C1` (stereo not shown) [Example 12, 4-{6-[2-(1-ethylpiperidin-3-yl)ethoxy]-5-(trifluoromethyl)pyridin-3-yl}-7-methyl-7H-pyrrolo[2,3-d]pyrimidine-2-carbonitrile monohydrochloride], for which the IC50 was 2.7 nM.

As to `Cn1ccc2c(-c3cnc(OCC4CCN(C(=O)[C@@H]5CCCN5)CC4)c(C(F)(F)F)c3)nc(C#N)nc21` [Example 154], the IC50 was found to be 2.4 nM.

Consider `CN1CCN(C(=O)Cn2ccc3c(-c4ccc(OCCC5CCOCC5)c(C(F)(F)F)c4)nc(C#N)nc32)CC1` [Example 8, 7-[2-(4-methylpiperazin-1-yl)-2-oxoethyl]-4-{4-[2-(tetrahydro-2H-pyran-4-yl)ethoxy]-3-(trifluoromethyl)phenyl}-7H-pyrrolo[2,3-d]pyrimidine-2-carbonitrile monohydrochloride], for which the IC50 was found to be 1.6 nM.

Turning to `Cn1cnc2c(-c3cnc(OCCC4CCN5CCCC5C4)c(C(F)(F)F)c3)nc(C#N)nc21` (stereo not shown) [Example 142], the half-inhibitory concentration (IC50) is 1.5 nM.

Consider `Cn1ccc2c(-c3ccc(OCCC4C5CCC4CNC5)c(C(F)(F)F)c3)nc(C#N)nc21` (stereo not shown) [Example 38], for which the IC50 was determined as 4.5 nM.

As for `CN1CCC[C@@H]1C(=O)N1CC[C@H](OCCOc2ncc(-c3nc(C#N)nc4c3ccn4C)cc2C(F)(F)F)C1` [Example 143, 7-methyl-4-[6-(2-{[(3S)-1-(1-methyl-D-prolyl)pyrrolidin-3-yl]oxy}ethoxy)-5-(trifluoromethyl)pyridin-3-yl]-7H-pyrrolo[2,3-d]pyrimidine-2-carbonitrile monofumarate], the IC50 turned out to be 1.5 nM.

Turning to `Cn1ccc2c(-c3cnc(OCCOC4CCNCC4)c(C(F)(F)F)c3)nc(C#N)nc21` [Example 147], the 50% inhibitory concentration (IC50) was found to be 2.4 nM.

As for `Cn1ccc2c(-c3ccc(OCCC4CCN(C5CC5)CC4)c(C(F)(F)F)c3)nc(C#N)nc21` [Example 14, 4-{4-[2-(1-cyclopropylpiperidin-4-yl)ethoxy]-3-(trifluoromethyl)phenyl}-7-methyl-7H-pyrrolo[2,3-d]pyrimidine-2-carbonitrile], the IC50 was determined as 2.3 nM.

Regarding `Cn1ccc2c(-c3cnc(OCC4CCN(C(=O)C5CCNCC5)CC4)c(C(F)(F)F)c3)nc(C#N)nc21` [Example 159], the IC50 was determined as 2.7 nM.

In the case of `Cc1nc2c(-c3ccc(OCCC4CCNCC4)c(C(F)(F)F)c3)nc(C#N)nc2n1C` [Example 10, 8,9-dimethyl-6-{4-[2-(piperidin-4-yl)ethoxy]-3-(trifluoromethyl)phenyl}-9H-purine-2-carbonitrile monohydrochloride], the IC50 came to 2.7 nM.

`Cn1cnc2c(-c3cnc(OCCC4CCN(C(CF)CF)CC4)c(C(F)(F)F)c3)nc(C#N)nc21` [Example 145]: the IC50 amounted to 1 nM.

Take `Cn1ccc2c(-c3cnc(OCCO[C@H]4CCNC4)c(C(F)(F)F)c3)nc(C#N)nc21` [Example 148]: the IC50 was determined as 2.8 nM.

Take `CN1CCC[C@H]1C(=O)N1CC[C@@H](OCCOc2ncc(-c3nc(C#N)nc4c3ccn4C)cc2C(F)(F)F)C1` [Example 157]: the concentration for half-maximal inhibition (IC50) was 2.1 nM.

Take `CCN1CCC(CCOc2ccc(-c3nc(C#N)nc4c3nc(C)n4C)cc2C(F)(F)F)CC1` [Example 11, 6-{4-[2-(1-ethylpiperidin-4-yl)ethoxy]-3-(trifluoromethyl)phenyl}-8,9-dimethyl-9H-purine-2-carbonitrile]: the IC50 stood at 1.9 nM.

Turning to `CN1CCC(CCOc2ncc(-c3nc(C#N)nc4c3ncn4C)cc2C(F)(F)F)CC1` [Example 136, 9-methyl-6-{6-[2-(1-methylpiperidin-4-yl)ethoxy]-5-(trifluoromethyl)pyridin-3-yl}-9H-purine-2-carbonitrile], the IC50 came out at 1.5 nM.

As to `CN(C)C(=O)CN1CCC(CCOc2ccc(-c3nc(C#N)nc4c3ccn4CC3CCCO3)cc2C(F)(F)F)CC1` (stereo not shown) [Example 16, 2-[4-(2-{4-[2-cyano-7-(tetrahydrofuran-2-ylmethyl)-7H-pyrrolo[2,3-d]pyrimidin-4-yl]-2-(trifluoromethyl)phenoxy}ethyl)piperidin-1-yl]-N,N-dimethylacetamide monohydrochloride], the IC50 was determined as 4.7 nM.

As for `Cn1ccc2c(-c3cnc(OCC4CCN(C(=O)C5CCN(C6CCOCC6)CC5)CC4)c(C(F)(F)F)c3)nc(C#N)nc21` [Example 160], the IC50 amounted to 2.4 nM.

In the case of `CN1CCC[C@H]1C(=O)N1CCC(OCCOc2ncc(-c3nc(C#N)nc4c3ccn4C)cc2C(F)(F)F)CC1` [Example 149], the IC50 worked out at 2.7 nM.

Take `Cn1cnc2c(-c3cnc(OCCC4CCN(C(C)(C)C)CC4)c(C(F)(F)F)c3)nc(C#N)nc21` [Example 146]: the IC50 was determined as 3.2 nM.

As for `CC(C)CN1CCC(CCOc2ncc(-c3nc(C#N)nc4c3ncn4C)cc2C(F)(F)F)CC1` [Example 144], the IC50 was 2.8 nM.

The subject of another assay is MHC class II expression in B220 positive B cells of mouse spleen cells. Description: In vitro MHC class II expression inhibitory effect using mouse spleen cells (LPS-stimulated B cells, flow cytometry). Conditions: B-cell, C57BL/6 spleen cells, LPS 2 μg/mL, 48 hours, B220 positive B cells, read-out: IC50 value of MHC class II expression inhibition (Data 2). Type of assay: cell-based, C57BL/6 mice. As for the experimental part: Test Example 2 Evaluation of In Vitro MHC Class II Expression Inhibitory Effect Using Mouse Spleen Cells (Cell Evaluation System)
In antigen-presenting cells, the inhibition of cathepsin S inhibits the expression of MHC class II molecules. […] For an increased expression of MI-IC class II in B cells, the inhibitory effect of the compound represented by formula (I) was examined.
First, spleen cells collected from C57BL/6 mice were seeded in a 96-well plate so as to be a 1×10^5 cells/well, then, 5-fold dilution of 10 mM DMSO solution of the test compound was serially performed with RPMI 1640 medium (including 10% fetal bovine serum (FCS), 5×10^−5 M 2-mercaptoethanol, 50 IU/mL penicillin and 50 μg/mL streptomycin) nine times such that the final concentration becomes 0.026 nM to 10 μM, and the resultant products were added thereto (the final DMSO concentration was 0.1%). At the same time, LPS (Sigma L4005) was added to the wells such that the final concentration becomes 2 μg/mL, and culture was performed at 37° C. for 48 hours in 5% CO2. After culturing, the cells were stained at 4° C. for 20 minutes with PE-labeled streptavidin (BD BIOSCIENCE 554061) and biotin-labeled YAe antibody (EBIOSCIENCE 13-5741-85) together with FITC-labeled anti-mouse B220 antibody (BD BIOSCIENCE 553088), and an expression level (fluorescence intensity of YAe-biotin/streptavidin-PE) of MHC class II to which Ea peptide in B220 positive B cells was bonded was measured using a flow cytometry system (Guava EasyCyte Plus System, manufactured by Millipore Corporation). A value at the time of unstimulation of LPS in which the test compound was not added and a value at the time of stimulation of LPS in which the test compound was not added were set to 100% inhibition and 0% inhibition, respectively, then, an inhibition rate at each concentration was determined, and IC50 values were calculated by a linear regression method. In the Table, Ex represents Example compound No., and Data 2 represents an IC50 value (nM).
As to `Cn1cnc2c(-c3cnc(OCCC4CCN(C5CCC5)CC4)c(C(F)(F)F)c3)nc(C#N)nc21` [Example 141], the IC50 stood at 0.65 nM.

`N#Cc1nc(-c2ccc(OCCC3CCNCC3)c(C(F)(F)F)c2)c2ccn(CC3CCCO3)c2n1` (stereo not shown) [Example 58]: the IC50 was 2 nM.

With `Cn1cnc2c(-c3ccc(OCCC4CCN(CC(=O)N5CC[C@H](F)C5)CC4)c(C(F)(F)F)c3)nc(C#N)nc21` [Example 122], the IC50 was 0.87 nM.

Consider `CCN1CCC(CCOc2ccc(-c3nc(C#N)nc4c3ncn4C)cc2C(F)(F)F)CC1` [Example 26], for which the IC50 was 0.61 nM.

In the case of `CCN1CCC(CCOc2ccc(-c3nc(C#N)nc4c3ccn4CC3CCCO3)cc2C(F)(F)F)CC1` (stereo not shown) [Example 88], the IC50 is 2.3 nM.

For `CCN1CCC(CCOc2ncc(-c3nc(C#N)nc4c3ccn4C)cc2C(F)(F)F)CC1` [Example 27], the IC50 was 1.3 nM.

`N#Cc1nc(-c2ccc(OCCC3CCNCC3)c(C(F)(F)F)c2)c2ccn(CC3CCOC3)c2n1` (stereo not shown) [Example 23]: the IC50 came to 3 nM.

Regarding `CN1CCC[C@H]1C(=O)N1CCC(CCOc2ccc(-c3nc(C#N)nc4c3ncn4C)cc2C(F)(F)F)CC1` [Example 29], the IC50 was 0.66 nM.
